# Measured values: publication PMC10833116 (Journal of Enzyme Inhibition and Medicinal Chemistry, 2024)
# Tested on: adult female Wistar rats
# Assay: Gastric ulcerogenic activity
# Type: in vivo, rat
# Conditions: fasted rats
row,Structure (SMILES),"Gastric ulcerogenic potential, gross examination"
1,"Cc1ccc(C(C)C)c(O)c1C=NN=c1scc(-c2ccccc2)n1-c1ccccc1 [Compound 6a, 2-((2-Hydroxy-3-isopropyl-6-methylbenzylidene)hydrazono)-3,4-diphenyl-2,3-dihydrothiazole]",no ulceration
2,"Cc1ccc(-c2cc(C(F)(F)F)nn2-c2ccc(S(N)(=O)=O)cc2)cc1 [Celecoxib, celecoxib, reference compound]",no ulceration
3,"Cc1ccc(C(C)C)c(O)c1C=NN=c1scc(-c2ccccc2)n1-c1ccccc1Cl [Compound 6b, 2-((2-Hydroxy-3-isopropyl-6-methylbenzylidene)hydrazono)-3-(2-chlorophenyl)-4-phenyl-2,3-dihydrothiazole]",no ulceration
4,"Cc1ccc(C(C)C)c(O)c1C=NN=c1scc(-c2ccc(Br)cc2)n1-c1ccccc1Cl [Compound 6f, 2-((2-Hydroxy-3-isopropyl-6-methylbenzylidene)hydrazono)-3-(2-chlorophenyl)-4-(4-bromophenyl)-2,3-dihydrothiazole]",no ulceration
5,"O=C(O)Cc1ccccc1Nc1c(Cl)cccc1Cl [Diclofenac sodium, diclofenac sodium, reference compound]",no ulceration
